In patent publication US8586598B2, “CDK inhibitor salts” (Nerviano Medical Sciences S.R.L., priority 2009, dated 2013):
Converted amounts (≈) assume the structure as drawn. Read-outs that look alike come from different tables or passages of the source.

Experiments:
[1] = Solubility of compound 125 salts and free base (96-well plate, shaken at RT 30 minutes, filtered, HPLC); assay type: physicochemical; conditions: thermodynamic from solid
[2] = Solubility (no method given); assay type: physicochemical

solubility at 30 min ([1]; 10% polysorbate 80 in 5% glucose solution, aqueous with cosolvent or surfactant or cyclodextrin): 800 µg/mL
solubility at 30 min ([1]; 50% polyethylene glycol 400 in 5% glucose solution, aqueous with cosolvent or surfactant or cyclodextrin, read-out: solubility in 50% polyethylene glycol 400 in 5% glucose solution): 7200 µg/mL
solubility at 30 min ([1]; saline or isotonic, 5% glucose solution, RT, 30 minutes, read-out: solubility in 5% glucose solution): < 100 µg/mL
solubility at 30 min ([1]; formulated as hydrochloride in situ salt, read-out: solubility when formulated as hydrochloride in situ salt): 10000 µg/mL
solubility ([2]; 5% dextrose solution, saline or isotonic, read-out: solubility in 5% dextrose solution): < 100 µg/mL
solubility ([2]; HCl in situ salt formulation, formulated as HCl in situ salt, read-out: solubility when formulated as HCl in situ salt): ≥ 10000 µg/mL
solubility ([2]; aqueous 10% Polysorbate 80, aqueous with cosolvent or surfactant or cyclodextrin): ~800 µg/mL (≈ 1740 µM)
solubility ([2]; aqueous 50% Polyethylene Glycol 400, aqueous with cosolvent or surfactant or cyclodextrin, read-out: solubility in aqueous 50% Polyethylene Glycol 400): ~8000 µg/mL (≈ 17400 µM)
solubility ([2]; water, read-out: aqueous solubility): < 100 µg/mL
Structure (SMILES): CNC(=O)c1nn(C)c2c1C(C)(C)Cc1cnc(Nc3ccc(N4CCN(C)CC4)cc3)nc1-2 [compound 125, 8-[4-(4-methyl-piperazin-1-yl)-phenylamino]-1,4,4-trimethyl-4,5-dihydro-1H-pyrazolo[4,3-h]quinazoline-3-carboxylic acid methylamide]
